In patent publication US11999727B2 (Tango Therapeutics, Inc., priority 2020, dated 2024):

Legend:
PRMT5 [1] = biological target: T1, PRMT5 (Homo sapiens, UniProt O14744); assay: PRMT5 biochemical IC50 assay with SAM as cofactor; settings: PRMT5, SAM as cofactor; read-out: SAM IC50
T1 construct: purchased Viva (custom protein)

PRMT5 [2] = biological target: T1, PRMT5; assay: PRMT5 biochemical IC50 assay with no cofactor; settings: PRMT5, no cofactor
From the text: Table 1 indicates IC50 values (μM) against PRMT5 for exemplary compounds in the presence of SAM as cofactor, with no cofactor, and with MTA as cofactor, respectively (columns 4-6). […] Ki values can be calculated from the IC50 values as described in the Examples section. As detailed in the Examples section, for the assay performed in the presence of SAM, IC50=Ki×1.5 (Ki=IC50/1.5).

PRMT5 [3] = biological target: T1, PRMT5; assay: PRMT5 biochemical IC50 assay with MTA as cofactor; settings: PRMT5, MTA as cofactor; read-out: MTA IC50
[4] = system: HAP1 MTAP-intact cell line; assay: SDMA in-cell western assay, HAP1 MTAP-intact; type: cell-based; settings: Homo sapiens, HAP1, SDMA in-cell western, HAP1 MTAP-intact; read-out: MTAP HAP1 intact IC50
Outline: (§1)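 MTAP-null vs endogenous-MTAP HAP1 isogenic cells; in-cell western SDMA readout; IC50 per line.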

[5] = system: HAP1 MTAP-deleted cell line; assay: SDMA in-cell western assay, HAP1 MTAP-deleted; type: cell-based; settings: for IC50: HAP1 MTAP-deleted
Outline: as §1

[6] = system: HAP1 MTAP-deleted cell line; assay: Viability assay, MTAP-deleted cell line; type: cell-based; settings: Homo sapiens, read-out: HAP1 MTAP deleted viability
From the text: Table 1 additionally indicates IC50 values in a viability assay for the MTAP-deleted cell line (column 10), indicating the effect of treatment with compound on cell survival.

[7] = Homo sapiens, HAP1, SDMA in-cell western, read-out: HAP 1 MTAP deleted IC50
[8] = IC50 ratio HAP1 MTAP-intact / HAP1 MTAP-deleted, SDMA in-cell western
[9] = HAP1, viability assay, MTAP-deleted cell line
[10] = read-out: No Cofactor/ rel IC50
[11] = Homo sapiens, HAP1, SDMA in-cell western, read-out: HAP1 MTAP deleted IC50
[12] = HAP1, viability, HAP1 MTAP-deleted cell line
[13] = HAP1, viability assay, HAP1 MTAP-deleted

T1 sequence (O14744 whole entry): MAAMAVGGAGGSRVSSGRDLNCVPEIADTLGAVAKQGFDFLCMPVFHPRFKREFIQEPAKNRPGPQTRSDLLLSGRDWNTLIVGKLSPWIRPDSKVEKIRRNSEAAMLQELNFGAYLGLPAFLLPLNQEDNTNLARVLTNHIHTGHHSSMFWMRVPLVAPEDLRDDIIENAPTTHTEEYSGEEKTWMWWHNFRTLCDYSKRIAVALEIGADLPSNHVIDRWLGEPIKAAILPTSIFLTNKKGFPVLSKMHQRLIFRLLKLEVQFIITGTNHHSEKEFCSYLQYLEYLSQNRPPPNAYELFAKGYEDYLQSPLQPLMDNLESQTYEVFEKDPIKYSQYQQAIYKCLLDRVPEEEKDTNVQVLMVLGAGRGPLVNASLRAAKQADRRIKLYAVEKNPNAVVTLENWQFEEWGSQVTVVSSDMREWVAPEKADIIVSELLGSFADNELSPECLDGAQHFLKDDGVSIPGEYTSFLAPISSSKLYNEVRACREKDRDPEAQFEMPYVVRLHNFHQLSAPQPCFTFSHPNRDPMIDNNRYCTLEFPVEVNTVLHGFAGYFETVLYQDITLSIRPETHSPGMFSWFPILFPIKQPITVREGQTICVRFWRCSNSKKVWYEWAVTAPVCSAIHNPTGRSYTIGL
T1 sequence (Q9BQA1 whole entry partner): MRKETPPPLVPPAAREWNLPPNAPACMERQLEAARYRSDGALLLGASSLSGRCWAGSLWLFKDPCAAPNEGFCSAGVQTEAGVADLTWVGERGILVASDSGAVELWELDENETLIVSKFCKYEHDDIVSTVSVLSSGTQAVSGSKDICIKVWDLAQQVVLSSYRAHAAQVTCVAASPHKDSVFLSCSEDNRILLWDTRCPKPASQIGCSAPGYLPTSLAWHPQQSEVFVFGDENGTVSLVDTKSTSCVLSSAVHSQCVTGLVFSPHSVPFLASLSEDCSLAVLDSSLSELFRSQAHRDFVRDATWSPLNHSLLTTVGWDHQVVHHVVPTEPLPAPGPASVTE

Row | SMILES | IC50 (PRMT5 [1]) [nM] | IC50 (PRMT5 [2]; read-out: No Cofactor/rel IC50) [nM] | IC50 (PRMT5 [3]) [nM] | IC50 [4] [nM] | IC50 [5, 7] [nM] | MTAP intact/deleted ratio [5, 8] | IC50 [6, 9] [nM] | IC50 (PRMT5 [2]; [10]) [nM] | IC50 [5, 11] [nM] | MTAP intact/deleted ratio ([5]; IC50 ratio HAP1 MTAP-intact vs HAP1 MTAP-deleted, SDMA in-cell western) | IC50 [6, 12] [nM] | IC50 ([5]; SDMA in-cell western, read-out: HAP1 MTAP deleted IC50) [nM] | IC50 [6, 13] [nM] | IC50 ([6]; HAP1, viability IC50, MTAP-deleted cell line) [nM]
1 | CCc1cc(NC(=O)C(=O)N2C[C@@H](C)CC[C@@H]2c2ccc(NC(C)=O)nc2)cnc1N (single isomer, unassigned) [Compound 925] | 50 to 500 | < 50 | < 50 | 100 to 1000 | < 100 | A (an IC50 ratio greater than or equal to 10 fold) | < 1000 |  |  |  |  |  |  | 
2 | Cc1cc(C)n(-c2ccc([C@@H]3CC[C@@H](C)CN3C(=O)C(=O)Nc3cncc(C(N)=O)c3)cc2)n1 (racemic) [Compound 157, rac-5-{2-[(2R,5S)-2-[4-(3,5-Dimethyl-1H-pyrazol-1-yl)phenyl]-5-methylpiperidin-1-yl]-2-oxoacetamido}pyridine-3-carboxamide] | 50 to 500 |  | 50 to 500 | > 1000 | > 1000 | B (an IC50 ratio greater than or equal to 3 fold but lower than 10 fold) | > 10000 | 50 to 500 |  |  |  |  |  | 
3 | COc1ncc(NC(=O)C(=O)N2C[C@@H](C)CC[C@@H]2c2ccc3sc([C@H]4CCN(C)C[C@@H]4C)nc3c2)cc1C(N)=O (racemic) [Compound 1168, 2-methoxy-5-[[2-oxo-2-[rac-(2R,5S)-5-methyl-2-[2-[rac-(3R,4S)-1,3-dimethyl-4-piperidyl]-1,3-benzothiazol-5-yl]-1-piperidyl]acetyl]amino]pyridine-3-carboxamide] | < 50 | < 50 | < 50 | < 100 |  |  | < 1000 |  | < 100 | A (an IC50 ratio greater than or equal to 10 fold) |  |  |  | 
4 | Cc1cc(NC(=O)C(=O)N2C[C@@H](C)[C@@H](OC(C)C)C[C@@H]2c2ccccc2)cnc1N (single isomer, unassigned) [Compound 1302] | > 500 |  | > 500 | > 1000 | > 1000 |  |  | > 500 |  |  | > 10000 |  |  | 
5 | COc1ncc(NC(=O)C(=O)N2C[C@H](C)CC[C@H]2c2ccc(N)nc2)cc1C(N)=O (single isomer, unassigned) [Compound 471] | > 500 | > 500 | > 500 | > 1000 |  | C (an IC50 ratio of less than 3 fold) | > 10000 |  | > 1000 |  |  |  |  | 
6 | Cc1cc(NC(=O)C(=O)N2C[C@H](C)[C@@H](CC(C)C)C[C@H]2c2ccc3scnc3c2)cnc1N (single isomer, unassigned) [Compound 1210] | 50 to 500 | 50 to 500 | < 50 | > 1000 |  |  | 1000 to 10000 |  | 100 to 1000 |  |  |  |  | 
7 | COc1ncc(NC(=O)C(=O)N2CCCCC2c2ccccc2)cc1C(N)=O (single isomer, unassigned) [Compound 199, 2-methoxy-5-(2-oxo-2-(2-phenylpiperidin-1-yl)acetamido)nicotinamide] | > 500 | > 500 | 50 to 500 | > 1000 |  | C (an IC50 ratio of less than 3 fold) | > 10000 |  |  |  |  | > 1000 |  | 
8 | Cc1cc(NC(=O)C(=O)N2C[C@@H]3CC[C@@H](C3)[C@H]2c2ccccc2)cnc1N (single isomer, unassigned) [Compound 64] | 50 to 500 |  | < 50 | > 1000 | < 100 | A (an IC50 ratio greater than or equal to 10 fold) | > 10000 | 50 to 500 |  |  |  |  |  | 
9 | CCc1cc(NC(=O)C(=O)N2C[C@@H](C)CC[C@@H]2c2ccc3sc([C@H]4COCCN4C)nc3c2)cnc1N [Compound 1245, N-(6-amino-5-ethylpyridin-3-yl)-2-((2R,5S)-5-methyl-2-(2-(4-methylmorpholin-3-yl)benzo[d]thiazol-5-yl)piperidin-1-yl)-2-oxoacetamide] | 50 to 500 |  | < 50 | 100 to 1000 | < 100 | A (an IC50 ratio greater than or equal to 10 fold) |  | < 50 |  |  | < 1000 |  |  | 
10 | C[C@@H]1CC[C@@H](c2ccc3[nH]ncc3n2)N(C(=O)C(=O)Nc2cncc(C(N)=O)c2)C1 (single isomer, unassigned) [Compound 787] | > 500 | > 500 | > 500 | > 1000 |  | C (an IC50 ratio of less than 3 fold) |  |  | > 1000 |  |  |  | > 10000 | 
11 | Cc1ccc([C@H]2CC[C@@H](C)CN2C(=O)C(=O)Nc2cnc(N)c(C)c2)nc1 (racemic) [Compound 982, N-(6-amino-5-methyl-3-pyridyl)-2-[(2R,5R)-5-methyl-2-(5-methyl-2-pyridyl)-1-piperidyl]-2-oxo-acetamide] | > 500 | 50 to 500 | 50 to 500 | > 1000 | 100 to 1000 | B (an IC50 ratio greater than or equal to 3 fold but lower than 10 fold) | > 10000 |  |  |  |  |  |  | 
12 | Cc1cc(NC(=O)C(=O)N2C[C@@H](C)CC[C@@H]2c2ccc3nn(C)cc3c2)cnc1N (single isomer, unassigned) [Compound 1040] | > 500 | > 500 | > 500 | > 1000 | 100 to 1000 | A (an IC50 ratio greater than or equal to 10 fold) | > 10000 |  |  |  |  |  |  | 
13 | Cc1cc(NC(=O)C(=O)N2C[C@H](C)C(F)(F)C[C@H]2c2ccccc2)cnc1N (single isomer, unassigned) [Compound 735] | < 50 | < 50 | < 50 | 100 to 1000 |  | A (an IC50 ratio greater than or equal to 10 fold) |  |  | < 100 |  |  |  | < 1000 | 
14 | CCc1cc(NC(=O)C(=O)N2C[C@H](C)CC[C@H]2c2ccc3cnccc3c2)cnc1N (single isomer, unassigned) [Compound 919] | 50 to 500 | < 50 | < 50 | 100 to 1000 | < 100 | A (an IC50 ratio greater than or equal to 10 fold) | < 1000 |  |  |  |  |  |  | 
15 | CNc1nc2cc([C@H]3CC[C@H](C)CN3C(=O)C(=O)Nc3cnc(OC)c(C(N)=O)c3)ccc2s1 (single isomer, unassigned) [Compound 863] | 50 to 500 | < 50 | < 50 | > 1000 |  | A (an IC50 ratio greater than or equal to 10 fold) |  |  | < 100 |  |  |  | < 1000 | 
16 | CCc1cc(NC(=O)C(=O)N2C[C@@H](C)CC[C@@H]2c2ccc3sc(C4CCNCC4)nc3c2)cnc1N [Compound 1240, N-(6-amino-5-ethyl-3-pyridyl)-2-[(2R,5S)-5-methyl-2-[2-(4-piperidyl)-1,3-benzothiazol-5-yl]-1-piperidyl]-2-oxo-acetamide] | < 50 |  | < 50 | < 100 | < 100 | B (an IC50 ratio greater than or equal to 3 fold but lower than 10 fold) |  | < 50 |  |  | < 1000 |  |  | 
17 | COc1ncc(NC(=O)C(=O)N2C[C@@H](C)CC[C@@H]2c2ccc3[nH]c(C)nc3c2)cc1C(N)=O (single isomer, unassigned) [Compound 924] | > 500 | > 500 | > 500 | > 1000 | > 1000 | B (an IC50 ratio greater than or equal to 3 fold but lower than 10 fold) | > 10000 |  |  |  |  |  |  | 
18 | Cc1cc(NC(=O)C(=O)N2C[C@H](C)CC[C@H]2c2ccc(C(N)=O)s2)cnc1N (single isomer, unassigned) [Compound 823] | > 500 | > 500 | > 500 | > 1000 |  | C (an IC50 ratio of less than 3 fold) |  |  | > 1000 |  |  |  | > 10000 | 
19 | CCc1cc([C@@H]2CC[C@@H](C)CN2C(=O)C(=O)Nc2cncc(C(N)=O)c2)ccc1O (racemic) [Compound 642, 5-[[2-[(2R,5S)-2-(3-Ethyl-4-hydroxy-phenyl)-5-methyl-1-piperidyl]-2-oxo-acetyl]amino]pyridine-3-carboxamide] | 50 to 500 | 50 to 500 | 50 to 500 | > 1000 | < 100 | A (an IC50 ratio greater than or equal to 10 fold) |  |  |  |  |  |  |  | < 1000
